The target in test [1] is T1, Vitamin D3 receptor (Gallus gallus) (UniProt O42392).
T1 sequence (whole entry): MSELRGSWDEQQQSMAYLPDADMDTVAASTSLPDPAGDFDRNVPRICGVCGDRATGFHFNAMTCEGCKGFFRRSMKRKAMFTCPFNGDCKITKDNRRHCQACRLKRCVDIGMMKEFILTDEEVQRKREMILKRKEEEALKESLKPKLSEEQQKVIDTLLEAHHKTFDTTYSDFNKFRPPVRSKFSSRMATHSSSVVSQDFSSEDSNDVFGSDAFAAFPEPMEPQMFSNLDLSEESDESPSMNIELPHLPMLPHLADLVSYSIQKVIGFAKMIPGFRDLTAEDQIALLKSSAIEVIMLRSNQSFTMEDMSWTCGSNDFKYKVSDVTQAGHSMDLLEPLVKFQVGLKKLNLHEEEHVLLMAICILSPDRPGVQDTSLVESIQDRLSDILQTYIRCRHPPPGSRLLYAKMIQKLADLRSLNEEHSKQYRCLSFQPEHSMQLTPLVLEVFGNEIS
Put plainly: Displacement of [3H]1,25-(OH)2-D3 from chick intestinal VDR relative to 1,25-(OH)2-D3. (In a radioligand displacement assay an active substance lowers the binding of a labelled ligand.)

Test [2] addresses T2, Vitamin D3 receptor (Homo sapiens) (UniProt P11473).
T2 sequence (whole entry): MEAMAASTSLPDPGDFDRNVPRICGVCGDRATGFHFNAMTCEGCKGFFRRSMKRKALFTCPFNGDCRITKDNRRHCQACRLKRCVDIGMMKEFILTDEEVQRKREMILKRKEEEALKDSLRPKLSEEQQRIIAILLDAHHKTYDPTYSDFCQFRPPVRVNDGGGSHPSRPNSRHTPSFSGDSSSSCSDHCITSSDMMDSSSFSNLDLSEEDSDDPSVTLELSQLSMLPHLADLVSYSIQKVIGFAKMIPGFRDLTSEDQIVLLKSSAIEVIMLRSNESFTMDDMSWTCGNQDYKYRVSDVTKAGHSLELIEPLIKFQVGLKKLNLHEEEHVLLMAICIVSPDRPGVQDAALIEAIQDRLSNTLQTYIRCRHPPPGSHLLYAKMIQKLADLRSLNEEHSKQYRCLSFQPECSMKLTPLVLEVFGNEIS
The experiment in a line: Antagonist activity at VDR in human HL60 cells assessed as effect on 1,25-(OH)2-D3-induced cell differentiation at 1 uM by NBT assay. Particulars: HL-60. The format is functional, cell-based.

The target of test [3] is T2, Vitamin D3 receptor (Homo sapiens). Put plainly: Antagonist activity at VDR in human HL60 cells assessed as effect on 1,25-(OH)2-D3-induced cell differentiation at 3 uM by NBT assay. The format is functional, cell-based. Particulars: HL-60.
For test [4] the target is unchanged. Put plainly: Agonist activity at human VDR expressed in monkey COS7 cells at <10 uM by luciferase reporter gene assay. The test is classed as functional, cell-based. Particulars: COS-7.

Drawing on ChEMBL document CHEMBL1155889, “Structure-activity relationship studies on vitamin D lactam derivatives as vitamin D receptor antagonist” (Bioorg Med Chem Lett, 2008), this text covers relative binding affinity (RBA) and Activity for 30 compounds.

The source made the active and inactive calls. The rule behind the calls is not given here.

In turn, `C=C1/C(=C\C=C2/CCC[C@]3(C)[C@@H]([C@H](C)C[C@H]4C[C@](C)(O)C(=O)N4Cc4ccccc4)CC[C@@H]23)C[C@@H](O)C[C@@H]1O` gave a relative binding affinity (RBA) in test [1] of 36.4. For `C=C1/C(=C\C=C2/CCC[C@]3(C)[C@@H]([C@H](C)C[C@H]4C[C@@](C)(O)C(=O)N4CCCc4cc(C(F)(F)F)cc(C(F)(F)F)c4)CC[C@@H]23)C[C@@H](O)C[C@@H]1O`, in test [1], the relative binding affinity (RBA) is under 5400. Moreover, in test [2], the result was inactive. Take `C=C1/C(=C\C=C2/CCC[C@]3(C)[C@@H]([C@H](C)C[C@H]4C[C@@](C)(O)C(=O)N4Cc4cc(OC)cc(OC)c4)CC[C@@H]23)C[C@@H](O)C[C@@H]1O`: the relative binding affinity (RBA) in test [1] was found to be 131. In test [1], `C=C1/C(=C\C=C2/CCC[C@]3(C)[C@@H]([C@H](C)C[C@@H]4C[C@@](C)(O)C(=O)N4CCc4cc(C(F)(F)F)cc(C(F)(F)F)c4)CC[C@@H]23)C[C@@H](O)C[C@@H]1O` returned a relative binding affinity (RBA) of 236. The outcome in test [3] was inactive. For `C=C1/C(=C\C=C2/CCC[C@]3(C)[C@@H]([C@H](C)C[C@@H]4C[C@@](C)(O)C(=O)N4CCCc4cc(C(F)(F)F)cc(C(F)(F)F)c4)CC[C@@H]23)C[C@@H](O)C[C@@H]1O`, in test [1], the relative binding affinity (RBA) was under 5400. Also, in test [2], the result was inactive.

In test [1], `C=C1/C(=C\C=C2/CCC[C@]3(C)[C@@H]([C@H](C)C[C@H]4C[C@@](C)(O)C(=O)N4CCCc4cc(OC)cc(OC)c4)CC[C@@H]23)C[C@@H](O)C[C@@H]1O` registered a relative binding affinity (RBA) of under 1520. Further, in test [3], the result was inactive.

In test [1], `C=C1/C(=C\C=C2/CCC[C@]3(C)[C@@H]([C@H](C)C[C@H]4C[C@@](C)(O)C(=O)N4Cc4cc(C(F)(F)F)cc(C(F)(F)F)c4)CC[C@@H]23)C[C@@H](O)C[C@@H]1O` displayed a relative binding affinity (RBA) of under 1520. In test [3], the result was inactive. As to `C=C1/C(=C\C=C2/CCC[C@]3(C)[C@@H]([C@H](C)C[C@H]4C[C@](C)(O)C(=O)N4Cc4cc(OCC)cc(OCC)c4)CC[C@@H]23)C[C@@H](O)C[C@@H]1O`, in test [1], the relative binding affinity (RBA) was 3.5. As to `C=C1/C(=C\C=C2/CCC[C@]3(C)[C@@H]([C@H](C)C[C@@H]4C[C@@](C)(O)C(=O)N4CCCc4cc(OC)cc(OC)c4)CC[C@@H]23)C[C@@H](O)C[C@@H]1O`, in test [1], the relative binding affinity (RBA) is under 1520. Further, the outcome in test [3] was inactive. `C=C1/C(=C\C=C2/CCC[C@]3(C)[C@@H]([C@H](C)C[C@H]4C[C@](C)(O)C(=O)N4Cc4cc(OC)cc(OC)c4)CC[C@@H]23)C[C@@H](O)C[C@@H]1O`: the relative binding affinity (RBA) in test [1] is 1.9. Compound `C=C1/C(=C\C=C2/CCC[C@]3(C)[C@@H]([C@H](C)C[C@@H]4C[C@@](C)(O)C(=O)N4CCc4cc(OC)cc(OC)c4)CC[C@@H]23)C[C@@H](O)C[C@@H]1O` yielded a relative binding affinity (RBA) in test [1] of 284. Moreover, in test [2], the outcome was inactive. For `C=C1/C(=C\C=C2/CCC[C@]3(C)[C@@H]([C@H](C)C[C@H]4C[C@](C)(O)C(=O)N4CCCc4cc(OC)cc(OC)c4)CC[C@@H]23)C[C@@H](O)C[C@@H]1O`, the relative binding affinity (RBA) in test [1] stood at 57. As for `C=C1/C(=C\C=C2/CCC[C@]3(C)[C@@H]([C@H](C)C[C@H]4C[C@](C)(O)C(=O)N4CCCc4cc(C(F)(F)F)cc(C(F)(F)F)c4)CC[C@@H]23)C[C@@H](O)C[C@@H]1O`, the relative binding affinity (RBA) in test [1] was 181. Besides, the result in test [2] was inactive. With `C=C1/C(=C\C=C2/CCC[C@]3(C)[C@@H]([C@H](C)C[C@H]4C[C@@](C)(O)C(=O)N4CCc4cc(OC)cc(OC)c4)CC[C@@H]23)C[C@@H](O)C[C@@H]1O`, in test [1], the relative binding affinity (RBA) was under 1520. Besides, the outcome in test [2] was inactive. In the case of `C=C1/C(=C\C=C2/CCC[C@]3(C)[C@@H]([C@H](C)C[C@@H]4C[C@](C)(O)C(=O)N4CCCc4cc(OC)cc(OC)c4)CC[C@@H]23)C[C@@H](O)C[C@@H]1O`, in test [1], the relative binding affinity (RBA) is under 1520. The result in test [3] was inactive. For `C=C1/C(=C\C=C2/CCC[C@]3(C)[C@@H]([C@H](C)C[C@@H]4C[C@@](C)(O)C(=O)N4Cc4cc(C(F)(F)F)cc(C(F)(F)F)c4)CC[C@@H]23)C[C@@H](O)C[C@@H]1O` the same measures were under 1520 and “inactive”.

Regarding `C=C1/C(=C\C=C2/CCC[C@]3(C)[C@@H]([C@H](C)C[C@@H]4C[C@](C)(O)C(=O)N4Cc4cc(C(F)(F)F)cc(C(F)(F)F)c4)CC[C@@H]23)C[C@@H](O)C[C@@H]1O`, the relative binding affinity (RBA) in test [1] was under 1520. Moreover, the result in test [3] was inactive. `C=C1/C(=C\C=C2/CCC[C@]3(C)[C@@H]([C@H](C)C[C@H]4C[C@](C)(O)C(=O)N4CCc4ccccc4)CC[C@@H]23)C[C@@H](O)C[C@@H]1O` came in with a relative binding affinity (RBA) in test [1] of 12.5. `C=C1/C(=C\C=C2/CCC[C@]3(C)[C@@H]([C@H](C)C[C@H]4C[C@@](C)(O)C(=O)N4CCc4cc(C(F)(F)F)cc(C(F)(F)F)c4)CC[C@@H]23)C[C@@H](O)C[C@@H]1O` had a relative binding affinity (RBA) in test [1] of 1180. In addition, the outcome in test [3] was inactive. On the same counts, the results for `C=C1/C(=C\C=C2/CCC[C@]3(C)[C@@H]([C@H](C)C[C@H]4C[C@](C)(O)C(=O)N4Cc4cc(C(F)(F)F)cc(C(F)(F)F)c4)CC[C@@H]23)C[C@@H](O)C[C@@H]1O` are 138 and “inactive”.

`C=C1/C(=C\C=C2/CCC[C@]3(C)[C@@H]([C@H](C)C[C@@H]4C[C@](C)(O)C(=O)N4CCc4cc(OC)cc(OC)c4)CC[C@@H]23)C[C@@H](O)C[C@@H]1O`: the relative binding affinity (RBA) in test [1] was under 1520. The result in test [2] was inactive. `C=C1/C(=C\C=C2/CCC[C@]3(C)[C@@H]([C@H](C)C[C@H]4C[C@](C)(O)C(=O)N4CCc4cc(OC)cc(OC)c4)CC[C@@H]23)C[C@@H](O)C[C@@H]1O` registered a relative binding affinity (RBA) in test [1] of 12. In test [1], `C=C1/C(=C\C=C2/CCC[C@]3(C)[C@@H]([C@H](C)C[C@H]4C[C@](C)(O)C(=O)N4Cc4cc(O)cc(O)c4)CC[C@@H]23)C[C@@H](O)C[C@@H]1O` gave a relative binding affinity (RBA) of 9.6. The result in test [2] and in test [4] was inactive. Turning to `C=C1/C(=C\C=C2/CCC[C@]3(C)[C@@H]([C@H](C)C[C@@H]4C[C@](C)(O)C(=O)N4CCc4cc(C(F)(F)F)cc(C(F)(F)F)c4)CC[C@@H]23)C[C@@H](O)C[C@@H]1O`, in test [1], the relative binding affinity (RBA) came to 757. Also, the outcome in test [3] was inactive. As for `C=C1/C(=C\C=C2/CCC[C@]3(C)[C@@H]([C@H](C)C[C@@H]4C[C@](C)(O)C(=O)N4CCCc4cc(C(F)(F)F)cc(C(F)(F)F)c4)CC[C@@H]23)C[C@@H](O)C[C@@H]1O`, in test [1], the relative binding affinity (RBA) is under 5400. In addition, in test [2], the outcome was inactive. For `C=C1/C(=C\C=C2/CCC[C@]3(C)[C@@H]([C@H](C)C[C@H]4C[C@](C)(O)C(=O)N4Cc4cc(OCCC)cc(OCCC)c4)CC[C@@H]23)C[C@@H](O)C[C@@H]1O`, the relative binding affinity (RBA) in test [1] came to 11.9.

`C=C1/C(=C\C=C2/CCC[C@]3(C)[C@@H]([C@H](C)C[C@@H]4C[C@](C)(O)C(=O)N4Cc4cc(OC)cc(OC)c4)CC[C@@H]23)C[C@@H](O)C[C@@H]1O`: the relative binding affinity (RBA) in test [1] is 60.

Turning to `C=C1/C(=C\C=C2/CCC[C@]3(C)[C@@H]([C@H](C)C[C@H]4C[C@](C)(O)C(=O)N4Cc4cc(OCCCC)cc(OCCCC)c4)CC[C@@H]23)C[C@@H](O)C[C@@H]1O`, the relative binding affinity (RBA) in test [1] is 18.2. `C=C1/C(=C\C=C2/CCC[C@]3(C)[C@@H]([C@H](C)C[C@@H]4C[C@@](C)(O)C(=O)N4Cc4cc(OC)cc(OC)c4)CC[C@@H]23)C[C@@H](O)C[C@@H]1O`: the relative binding affinity (RBA) in test [1] turned out to be 185. Compound `C=C1/C(=C\C=C2/CCC[C@]3(C)[C@@H]([C@H](C)C[C@H]4C[C@](C)(O)C(=O)N4CCc4cc(C(F)(F)F)cc(C(F)(F)F)c4)CC[C@@H]23)C[C@@H](O)C[C@@H]1O` registered a relative binding affinity (RBA) in test [1] of 42. Further, the result in test [3] was inactive.
